# Tests used:
# human COX-2 promoter = test: COX-2 promoter-driven luciferase reporter assay in TPA-treated B16 melanoma cells; assay type: cell-based, murine; conditions: reference control
# Description: A double-mutated COX-2 promoter containing mutations on both NF-κB sites was also constructed (FIG. 2). PPGL-3-Basic vector was used as a negative control in luciferase assays. COX-2 reporter activity in arbitrary units (AU) was normalized to that for the Renilla luciferase reporter.
# Murine melanoma B-16 cells co-transfected with the full-length pCOX-2-Luc and internal control plasmid pRL-TK-Luc plasmid constructs were stimulated without (control) or with TPA, in the absence or presence of the indicated concentrations of CREa8. An amount of 10 μg of total protein lysate was subjected to dual luciferase reporter assay. The induction fold of COX promoter activity by TPA treatment only is presented as 100%. The statistical analyses between […] and CREa8, aspirin, or indomethacin (Indo.) treatment were performed using Student's t-test.
# B-16 cells were co-transfected with the full-length pCOX-2-Luc and internal control Renilla pRL-TK-Luc plasmid constructs with the LIPOFECTAMINE reagent (Invitrogen). The cells were then stimulated with vehicle (0.001% DMSO) or with 50 ng/mL TPA, in the absence or presence of dLGG for 6 hours. Ten μg of total protein lysate prepared with Passive Lysis Buffer (Promega) was subjected to dual luciferase reporter assay. The induction fold of COX-2 promoter activity by TPA treatment only is presented as 100%.
# The contribution of specific cis-acting element binding sites on the transcription of COX-2 was examined. Data were obtained from 2 to 3 experiments with 3 to 6 replicates and expressed as mean±SD. Two-way ANOVA was used to analyze significance of differences.
# NF-κB•DNA complex = test: Electrophoretic mobility shift assay of NF-κB binding to consensus DNA in LPS-stimulated RAW 264.7 cells; assay type: cell-based, murine; conditions: 100 μM, LPS 1 μg/mL, 90 min
# Method: EMSA was performed with the […]™ Chemiluminescent EMSA kit (Pierce Biotechnology, Rockford, Ill.). […] The DNA-protein complexes were subjected to 5-10% gradient PAGE. Competition assay with unlabeled oligonucleotide (cold DNA) was performed in parallel. […]
# NO = test: Plasma nitrite concentration in SNP-treated mice; assay type: in vivo, Female ICR mice; conditions: topical pretreatment 30 min before SNP; dLGG 10 mg/site, PTIO 3.5 mg/site
# Method: Female ICR mice were topically treated on their shaven back area of a 2-cm diameter (3.14 cm^2/site/mouse) with vehicle control (acetone), SNP (positive control), or with dLGG or PTIO for 30 minutes before SNP application. Mouse plasma samples were subjected to determine the nitrite content followed a published method (Moshage et al. Clin Chem 1995; 41:892-6).
# To examine the capability of dLGG to scavenge NO in vivo, the plasma NO concentration in SNP-insulted mice was determined with or without pretreatment with dLGG. Female ICR mice were transdermally treated with 200 μL acetone (vehicle control) or SNP (5.96 mg/site) only for 15 minutes, or pre-treated with dLGG (10 mg/site) or PTIO (3.5 mg/site) for 30 minutes before SNP treatment.
# B16 melanoma = test: In vivo inhibition of B16 melanoma growth in C57BL/6J mice
# Method: The chemopreventive effect of the CREa8 subfraction was evaluated on tumor growth using the B16 melanoma C57BL/6J mouse system. Six-week-old animals (4 groups of mice, 5 in each group) were used in this experiment. Group 1 mice (Sham control) were intraperitoneally (i.p.) injected with 20 μL of DMSO every 2 days throughout the experimental period, except 100 μL PBS was injected on day 0. Group 4 mice (Tumor control) were pre-treated with DMSO every 2 days, starting from day—14, for 2 weeks, inoculated with B16 tumor cells (1×10^6 cells/100 μL PBS) subcutaneously (s.c.) on the abdominal area on day 0, and then injected with DMSO every 2 days until day 21. Group 2 mice were i.p. pre-treated with CREa8 (10 mg/kg body weight per dose) every 2 days, starting from day—14, for 2 weeks, s.c. inoculated with B16 tumor cells on day 0, and then continuously treated with CREa8 (i.p.) every 2 days until day 21. Group 3 mice were similarly pre-treated with DMSO every 2 days for 2 weeks, inoculated with B16 tumor cells on day 0, and then treated with cisplatin (i.p.) every 2 days until day 21. The test mice were monitored daily, and body weights and tumor size (average of 2 dimensions) recorded every 2 days. At the end of the experiment (day 21), tumors were excised and weighed.
# The cancer prevention efficacy of the dLGG-rich fraction (CREa8) was examined in vivo in 4 groups of mice according to the method described above. Cisplatin, a cancer chemotherapeutic, was used as a reference control.
smiles,measurement,setting,value
"COc1ccc2c(c1)c(CC(=O)O)c(C)n2C(=O)c1ccc(Cl)cc1 [indomethacin, reference compound]",Suppression of COX-2 promoter activity,human COX-2 promoter; 15 μg/mL,28%
"CC/C=C\C/C=C\C/C=C\CCCCCCCC(=O)OC[C@@H](O)CO[C@@H]1O[C@H](CO)[C@H](O)[C@H](O)[C@H]1O [1LGG, 1-O-α-linolenoyl-3-O-β-galactopyranosyl-sn-glycerol]",Inhibition of NF-κB•DNA complex formation (structure-activity study),NF-κB•DNA complex,less effective than dLGG and dLG
"CC1(C)N([O])C(c2ccccc2)=[N+]([O-])C1(C)C [PTIO, 2-phenyl-4,4,5,5-tetramethylimidazoline-1-oxyl-3-oxide, reference compound]",SNP-induced increase of nitrite plasma concentration,NO,suppressed
"CC(=O)Oc1ccccc1C(=O)O [aspirin, reference compound]",Suppression of COX-2 promoter activity,human COX-2 promoter; 45 μg/mL,19%
N.N.[Cl][Pt][Cl] [cisplatin],Average tumor size,"B16 melanoma; day 7, i.p. every 2 days, tumor control 0.73 cm",0.29 cm
same,"Average tumor size, of the tumor control",B16 melanoma; day 17,73%
same,Tumor weight to body weight ratio,"B16 melanoma; day 21, tumor control 31.3%",25.2%
same,Body weights versus other groups,B16 melanoma; throughout treatment,no significant differences
"CCCCCCCCCCCCCCCCCC(=O)O [SA, stearic acid, reference compound]",Inhibition of NF-κB•DNA complex formation (structure-activity study),NF-κB•DNA complex,little or no detectable effect
"CC/C=C\C/C=C\C/C=C\CCCCCCCC(=O)O[C@H](CO)CO[C@@H]1O[C@H](CO)[C@H](O)[C@H](O)[C@H]1O [2LGG, 2-O-α-linolenoyl-3-O-β-galactopyranosyl-sn-glycerol]",Inhibition of NF-κB•DNA complex formation (structure-activity study),NF-κB•DNA complex,less effective than dLGG and dLG
"CC/C=C\C/C=C\C/C=C\CCCCCCCC(=O)OC[C@H](CO)OC(=O)CCCCCCC/C=C\C/C=C\C/C=C\CC [dLG, 1,2-di-O-α-linolenoyl-sn-glycerol]",Inhibition of NF-κB•DNA complex formation (structure-activity study),NF-κB•DNA complex,almost completely inhibited

# Source: patent US8048455B2, “Treatment of cancer and inflammatory disorder” (Academia Sinica, priority 2006, dated 2011)
